For series [1], the target named is Cytochrome P450 3A4 (CYP 3A4) (Homo sapiens, UniProt P08684). Particulars: in vitro study (Stout and Cimino 2014); cited from earlier work.
The subject of series [2] is Chronic Constriction Injury model of chronic neuropathic pain. In words: Von Frey pain threshold in the Chronic Constriction Injury (sciatic nerve ligation) model. Particulars: CCI rats.
From the text: Male Sprague Dawley rats underwent baseline measurement of pain threshold via Von Frey testing according to the study schema in FIG. 4. The following day, rats underwent surgical ligation of the sciatic nerve using the Chronic Constriction Injury model of chronic neuropathic pain. After 7 days to allow the development of chronic neuropathic pain, rats underwent repeat Von Frey testing to determine pain threshold and started oral treatment with CBD or saline (Table 2). After 7 days of CBD or saline, rats underwent pre-dosing pain threshold determination via Von Frey testing and then received either standard dose BUP, low dose BUP, CBD alone or low dose BUP plus CBD followed by repeat post-dose pain threshold determination via Von Frey testing (Table 3).
For series [3] the following is noted: rats (Graham and Li, 1973); cited from earlier work.

The values below come from patent publication US12364668B2, “Treatment of opioid use disorder, opioid withdrawal symptoms, and chronic pain” (THE REGENTS OF THE UNIVERSITY OF CALIFORNIA, priority 2017, dated 2025).

Sequence of Cytochrome P450 3A4 (CYP 3A4) (P08684 whole entry, species assumed): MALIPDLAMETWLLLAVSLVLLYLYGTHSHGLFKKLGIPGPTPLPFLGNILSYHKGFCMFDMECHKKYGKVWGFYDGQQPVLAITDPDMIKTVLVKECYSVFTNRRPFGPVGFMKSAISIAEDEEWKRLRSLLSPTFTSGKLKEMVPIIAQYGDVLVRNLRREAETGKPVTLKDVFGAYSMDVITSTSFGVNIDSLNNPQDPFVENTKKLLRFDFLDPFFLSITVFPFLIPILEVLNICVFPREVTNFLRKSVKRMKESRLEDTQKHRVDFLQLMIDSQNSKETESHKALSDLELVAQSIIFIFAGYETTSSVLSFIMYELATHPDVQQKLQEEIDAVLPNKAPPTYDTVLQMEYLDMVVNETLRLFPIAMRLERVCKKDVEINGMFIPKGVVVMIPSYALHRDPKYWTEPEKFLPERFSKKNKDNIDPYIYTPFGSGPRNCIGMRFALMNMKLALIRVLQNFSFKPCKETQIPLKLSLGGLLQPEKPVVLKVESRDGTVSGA

In the case of `C=C(C)[C@@H]1CCC(C)=C[C@H]1c1c(O)cc(CCCCC)cc1O` [CBD, cannabidiol], in series [1], the “Inhibition of CYP 3A4” value is recorded as “inhibits”. Further, in series [2] (CBD alone 7 mg/kg PO days 7-14, saline IV on day 14), the “Mean pain threshold (g in Von Frey Testing), Day 14-1 hour Post Dose” value was 5.25 g. For the same compound, the “Pain threshold on day 14 compared to no BUP (Group 1)” value in series [2] (CBD alone 7 mg/kg PO days 7-14) is given as “did not significantly increase”. Also, the “Mean pain threshold (g in Von Frey Testing), Day 14 Pre-Dose” value in series [2] (CBD alone group, after 7 days of CBD 7 mg/kg PO, before day 14 dosing) worked out at 5.50 g. Also, the “Effect on respiratory rate” value in series [3] is “did not reduce”.
